Source: PubChem BioAssay (NCI)
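Assay format: 96-well plates, 48-hour exposure. The concentration for full growth arrest is given as TGI.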

What was measured:
Assay in all cases: NCI tumour cell line growth inhibition, 48 h
[1] = system: SNB-19 CNS
[2] = system: DMS 114 small cell lung
[3] = system: UO-31 renal
[4] = system: OVCAR-5 ovarian
[5] = system: MALME-3M melanoma
[6] = system: NCI-H226 lung
[7] = system: ACHN renal
[8] = system: M14 melanoma
[9] = system: DMS 273 small cell lung
[10] = system: TK-10 renal
[11] = system: HOP-62 NSCLC
[12] = system: SNB-78 CNS
[13] = system: KM12 colon
[14] = system: CCRF-CEM leukemia
[15] = system: LOX IMVI melanoma
[16] = system: U251 CNS
[17] = system: UACC-62 melanoma
[18] = system: SF-295 CNS
[19] = system: HCT-15 colon
[20] = system: NCI-H460 lung
[21] = system: HOP-92 NSCLC
[22] = system: SN12C renal
[23] = system: IGROV1 ovarian
[24] = system: RPMI-8226 leukemia
[25] = system: HT29 colon
[26] = system: SF-539 CNS
[27] = system: NCI-H23 lung
[28] = system: CAKI-1 renal
[29] = system: OVCAR-8 ovarian
[30] = system: LXFL 529 NSCLC
[31] = system: MOLT-4 leukemia
[32] = system: SK-MEL-2 melanoma
[33] = system: SK-MEL-5 melanoma
[34] = system: A549 NSCLC
[35] = system: DLD-1 colon
[36] = system: A498 renal
[37] = system: SK-OV-3 ovarian
[38] = system: COLO 205 colon
[39] = system: M19-MEL melanoma
[40] = system: SW-620 colon
[41] = system: HCT-116 colon
[42] = system: NCI-H522 lung
[43] = system: OVCAR-4 ovarian
[44] = system: 786-0 renal
[45] = system: EKVX NSCLC
[46] = system: XF 498 CNS
[47] = system: RXF 393 renal
[48] = system: SK-MEL-28 melanoma
[49] = system: UACC-257 melanoma
[50] = system: K-562 leukemia
[51] = system: KM20L2 colon
[52] = system: SF-268 CNS
[53] = system: HOP-18 NSCLC
[54] = system: OVCAR-3 ovarian
[55] = system: SNB-75 CNS
[56] = system: SR leukemia
[57] = system: HCC-2998 colon
[58] = system: HL-60(TB) leukemia

Measured: TGI

O=C(N/C(=C\c1ccc(/C=C(\NC(=O)c2ccccc2)c2nc3cc(Cl)ccc3[nH]2)cc1)c1nc2cc(Cl)ccc2[nH]1)c1ccccc1
76.1 µM: [19]
66.2 µM: [41]
39.8 µM: [31]
79 µM: [10]
99.6 µM: [32]
50.4 µM: [9]
87 µM: [43]
25.4 µM: [24]
78.5 µM: [26]
53.8 µM: [42] | [48]
88.7 µM: [13]
51.3 µM: [38]
71 µM: [50]
55.5 µM: [51]
91.9 µM: [45]
85.3 µM: [47]
73.5 µM: [52]
65 µM: [17]
47.8 µM: [33]
not listed: [56] | [57] | [58]
> 100 µM: all other assays above

N#Cc1cc([N+](=O)[O-])ccc1NC(=O)C(F)(F)F
> 56.1 µM: [2]
> 55.8 µM: [40]
> 66.9 µM: [24]
> 49.7 µM: [15]
> 58.5 µM: [19]
44.6 µM: [38]
> 67.6 µM: [25]
> 57.4 µM: [20]
> 61.5 µM: [41]
> 89.5 µM: [44]
> 95.9 µM: [55]
> 100 µM: all other assays above
